# Results reported in paper PMC4551797 (PLoS ONE, 2015).
# Tests used:
# NCI-H716 cells = experiment: GLP-1 secretion in NCI-H716 enteroendocrine cells; type: cell-based; conditions: Homo sapiens
# Procedure: HEK-293 cells were obtained from ATCC and a clonal HEK-293 line overexpressing mouse TGR5 was prepared. Both were maintained in Dulbecco’s modified Eagle’s medium (DMEM) containing 10% fetal bovine serum (FBS) and penicillin /streptomycin. Mouse STC-1 cells were obtained from ATCC under agreement with the Cold Spring Harbor Laboratories and maintained in DMEM containing 10% FBS and penicillin /streptomycin. NCI-H716 cells were obtained from ATCC and were maintained in RPMI-1640 with 10% FBS. NCI-H716 cells were cultured in 96 well plate coated with Matrigel (BD). After 72 hours, cAMP production stimulated with TGR5 agonists was measured using HTRF cAMP assay kit (CISBIO). The level of cAMP in suspensions of STC-1 cells stimulated with increasing concentrations of TGR5 agonists was also determined. […] The production of GLP-1 was determined using a GLP-1 Assay (7–36) amide kit (Mesoscale Discovery) following the manufacturer’s instructions. […]
# Compound 18 is a novel small molecule agonist of TGR5 developed by Eli Lilly and Company (MW = 508.62, Fig 2A). […] In order to determine potency of compound 18 for the mouse and human TGR5 receptor in cells with endogenous levels of receptor, we measured compound 18-stimulated cAMP production and GLP-1 secretion in both mouse (STC-1) and human (NCI-H716) enteroendocrine cell lines, that we have shown to express TGR5 natively (Fig 1). […]
# DIO C57BL/6 mice = experiment: Oral glucose tolerance test in diet-induced obese mice, acute or after 2-week dosing; type: in vivo, mouse; conditions: 2 g/kg glucose
# Procedure: For measurement of glucose only, overnight-fasted C57BL/6 mice in a normal light cycle were orally dosed with vehicle or compound, followed by an oral bolus of 3 g/kg glucose at 15 minutes post compound. At 0, 20, 40, 60, and 120 minutes post glucose dose, blood glucose was assessed via glucometers. Resulting raw data was used to generate AUCs. For measurement of hormones and glucose, overnight-fasted C57BL/6 mice acclimated for two weeks to a reverse light cycle were orally dosed with vehicle or compound, followed by an oral bolus of 3 g/kg glucose at 15 minutes post compound. At 0, 2, 5, 10, 20, 40, and 60 minutes post glucose dose, blood glucose was assessed via glucometers, followed immediately by collection of plasma for active GLP-1 (Mesoscale Discovery), insulin (Mesoscale Discovery), and total PYY. […] At 0, 15, 30, 60, and 120 minutes post glucose dose, blood glucose was assessed via glucometers. […]
# While compound 18 led to significant glucose lowering in an OGTT studies when dosed acutely, it remained unclear if the mechanism of TGR5-stimulated GLP-1 secretion desensitizes over time. […] For the chronic study, DIO mice were orally dosed with vehicle or 60 mg/kg compound 18 once a day for two weeks; body weights and food intake were measured during the treatment period. […]
# C57BL/6 mice = experiment: Oral glucose tolerance test, glucose only; conditions: oral 1-100 mg/kg tested, glucose 3 g/kg 15 min after compound
# Procedure: For measurement of glucose only, overnight-fasted C57BL/6 mice in a normal light cycle were orally dosed with vehicle or compound, followed by an oral bolus of 3 g/kg glucose at 15 minutes post compound. At 0, 20, 40, 60, and 120 minutes post glucose dose, blood glucose was assessed via glucometers. Resulting raw data was used to generate AUCs. […] At 0, 15, 30, 60, and 120 minutes post glucose dose, blood glucose was assessed via glucometers. Resulting raw data was used to generate AUCs.
# GPR40 = GPR40 (Homo sapiens, UniProt O14842); experiment: Selectivity: enteroendocrine GPCR GPR40
# FXR = target: T1, FXR (Homo sapiens, UniProt Q96RI1); experiment: Selectivity: nuclear hormone receptor FXR
# T1 sequence (Q96RI1 1-486): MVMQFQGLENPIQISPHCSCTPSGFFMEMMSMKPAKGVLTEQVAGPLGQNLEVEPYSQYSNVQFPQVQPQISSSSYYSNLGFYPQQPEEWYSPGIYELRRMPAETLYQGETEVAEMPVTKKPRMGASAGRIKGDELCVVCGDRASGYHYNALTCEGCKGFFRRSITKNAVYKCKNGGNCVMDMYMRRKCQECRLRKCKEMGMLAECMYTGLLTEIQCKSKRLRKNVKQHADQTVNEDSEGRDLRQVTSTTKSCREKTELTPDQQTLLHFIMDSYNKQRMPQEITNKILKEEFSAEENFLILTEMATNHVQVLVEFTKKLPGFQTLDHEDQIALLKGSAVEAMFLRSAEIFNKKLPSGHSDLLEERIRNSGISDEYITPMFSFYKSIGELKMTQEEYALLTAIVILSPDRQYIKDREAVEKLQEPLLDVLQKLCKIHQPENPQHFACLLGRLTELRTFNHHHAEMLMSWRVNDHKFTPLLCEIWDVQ
# GPR40, sequence (O14842 whole entry, species assumed): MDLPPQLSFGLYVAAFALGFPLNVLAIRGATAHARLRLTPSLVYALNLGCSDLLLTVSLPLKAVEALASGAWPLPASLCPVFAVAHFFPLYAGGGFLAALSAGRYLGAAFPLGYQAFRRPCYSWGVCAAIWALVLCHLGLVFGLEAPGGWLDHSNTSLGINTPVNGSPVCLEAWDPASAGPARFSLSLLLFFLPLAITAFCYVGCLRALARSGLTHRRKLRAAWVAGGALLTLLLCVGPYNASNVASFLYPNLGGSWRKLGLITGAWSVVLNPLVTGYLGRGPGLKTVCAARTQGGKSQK
compound,measurement,setting,value
CC(=O)N1CCC(C(C)N(C(=O)COc2cccc3sc4nc(C)cn4c23)c2ccc(F)cc2)CC1 (stereo not drawn) [compound 18],EC50,NCI-H716 cells,2.66 µM
same,reduction in the glucose excursion (OGTT),"DIO C57BL/6 mice; acute, single 60 mg/kg oral dose",33 ± 5%
same,reduction in the glucose excursion (OGTT),"DIO C57BL/6 mice; chronic, 60 mg/kg oral once a day for two weeks",27 ± 6%
same,doses that reduce glucose excursions in OGTT,C57BL/6 mice,≥ 30 mg/kg
same,EC50,GPR40,> 125 µM
same,EC50,FXR,> 125 µM
